# Patent publication US20230234967A1, “Fused Azole Heterocycles as AHR Antagonists” (Senda Biosciences, Inc., priority 2021, published 2023)
# Biological target: T1, AHR (Homo sapiens, UniProt P35869)
# T1 construct: other cell line with a DRE-luciferase reporter stably transfected; endogenous in cells; host or cells: Human HepG2 liver carcinoma AhR-Lucia reporter cells
# T1 sequence (P35869 11-848): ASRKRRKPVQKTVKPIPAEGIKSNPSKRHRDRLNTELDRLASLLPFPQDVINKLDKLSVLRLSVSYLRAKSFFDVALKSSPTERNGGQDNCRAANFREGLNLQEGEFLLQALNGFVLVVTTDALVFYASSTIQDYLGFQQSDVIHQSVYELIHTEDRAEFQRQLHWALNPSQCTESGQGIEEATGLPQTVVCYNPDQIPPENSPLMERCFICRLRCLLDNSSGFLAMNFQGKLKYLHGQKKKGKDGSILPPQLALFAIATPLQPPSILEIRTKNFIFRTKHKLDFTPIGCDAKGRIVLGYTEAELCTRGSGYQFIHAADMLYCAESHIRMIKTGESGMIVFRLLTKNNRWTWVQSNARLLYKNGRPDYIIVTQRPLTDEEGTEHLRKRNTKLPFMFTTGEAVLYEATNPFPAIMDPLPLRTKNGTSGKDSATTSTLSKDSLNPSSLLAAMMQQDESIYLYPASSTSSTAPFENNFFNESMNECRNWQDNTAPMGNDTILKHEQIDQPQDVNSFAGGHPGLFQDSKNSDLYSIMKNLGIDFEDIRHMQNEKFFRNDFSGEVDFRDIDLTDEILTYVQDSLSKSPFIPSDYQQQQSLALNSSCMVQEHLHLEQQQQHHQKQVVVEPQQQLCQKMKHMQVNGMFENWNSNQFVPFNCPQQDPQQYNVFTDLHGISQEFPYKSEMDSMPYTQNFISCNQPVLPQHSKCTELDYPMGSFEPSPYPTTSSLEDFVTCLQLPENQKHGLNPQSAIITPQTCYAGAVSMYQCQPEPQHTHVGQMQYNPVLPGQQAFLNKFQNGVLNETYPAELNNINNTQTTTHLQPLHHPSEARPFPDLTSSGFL
# Experiment: DRE-Luciferase Reporter Assay (HepG2 AhR-Lucia reporter cells)
# Type: cell-based
# Settings: AHR activating ligand at its EC50, luciferase read-out, read-out: HEPG2 Luc IC50
# Source text: Example 27: DRE-Luciferase Reporter Assay
# AHR binds to Dioxin Responsive Elements (DRE) upstream of genes that it activates. One measure of AHR activity is activation of a reporter gene, such as luciferase, downstream of one or multiple DRE elements. Luciferase activity will reflect activation and inhibition of AHR in the cells expressing his reporter. 20000 Human HepG2 liver carcinoma—AhR-Lucia reporter cells or Human HT29 colon adenocarcinoma—AhR reporter cells or other cell line with a DRE-luciferase reporter stably transfected were plated in Eagle's Minimal Essential Medium, 10% heat-inactivated FBS, 1×non-essential amino acids Pen-Strep (10,000 U/mL) and Normocin (100 ug/mL) in plates (96-well, 384-well or other plates) and incubated overnight at 37° C. in a CO2 incubator and treated with and without AhR antagonists at a log dilution starting at 100 uM.
# After 1 hr that cells were plated an AHR activating ligand, such as TCDD, kynurenine, ITE (2-(1H-indole-3-ylcarbonyl)-4-thiazolecarboxylic methyl ester), VAF347, BNF (beta-naphthoflavone), FICZ (6-formylindolo(3,2-b) carbazole) or other AHR ligands at their specific EC50 concentration, were added to the cells with or without AHR antagonist.
# Cells were incubated for 24 or 48 hours or another time point and then, supernatant was analyzed for determination of luciferase activity as a read-out of the AHR activation or inhibition. Luciferase was measured with the commercial kit QUANTI-Luc™ assay solution kit from Invivogen following the manufacturer's instructions.
# The level of luciferase with only agonist ligand added was the maximum signal while the luciferase with […] was the minimum signal. IC50 values were determined as the concentration which inhibits half of the luciferase activity. “A” indicates an IC50 value less than 100 nM, “B” indicates an IC50 between 100 and 500 nM, “C” indicates an IC50 above 500 nM.
row,SMILES,IC50 [nM]
1,"CN(CCO)c1ccccc1-c1ccc2nc(NC(=O)c3ccnn3C)sc2n1 [Product 37, N-(5-(2-((2-hydroxyethyl)(methyl)amino)phenyl)thiazolo[5,4-b]pyridin-2-yl)-1-methyl-1H-pyrazole-5-carboxamide]",100 to 500
2,"Cc1ccccc1-c1ccc2nc(NC(=O)N3CCN(C)CC3)sc2n1 [Product 40, 4-methyl-N-(5-(o-tolyl)thiazolo[5,4-b]pyridin-2-yl)piperazine-1-carboxamide]",> 500
3,"Cc1ccccc1-c1cc2sc(NC(=O)c3ccnn3C)nc2cn1 [Product 42, 1-methyl-N-(6-(o-tolyl)thiazolo[4,5-c]pyridin-2-yl)-1H-pyrazole-5-carboxamide]",> 500
4,"Cc1ccccc1-c1ccc2nc(NC(=O)c3ccnn3C)oc2n1 [Product 43, 1-methyl-N-(5-(o-tolyl)oxazolo[5,4-b]pyridin-2-yl)-1H-pyrazole-5-carboxamide]",> 500
5,Cc1ccccc1-c1cc2cnc(NC(=O)c3ccnn3C)nc2[nH]1 [Product 48],100 to 500
6,"Cc1ccccc1-c1cc2ncc(NC(=O)c3ccnn3C)cc2[nH]1 [Product 49, 1-methyl-N-(2-(o-tolyl)-1H-pyrrolo[3,2-b]pyridin-6-yl)-1H-pyrazole-5-carboxamide]",100 to 500
7,"Cc1ccccc1-c1cc2ncc(NC(=O)c3ccnn3C)nc2[nH]1 [Product 50, 1-methyl-N-(6-(o-tolyl)-5H-pyrrolo[2,3-b]pyrazin-3-yl)-1H-pyrazole-5-carboxamide]",> 500

# Second part, the compound after the results:
row,IC50 [nM],SMILES
1,> 500,"Cc1ccccc1-c1ccc2sc(NC(=O)c3ccnn3C)nc2n1 [Product 41, 1-methyl-N-(5-(o-tolyl)thiazolo[4,5-b]pyridin-2-yl)-1H-pyrazole-5-carboxamide]"
2,100 to 500,"Cn1nccc1C(=O)Nc1cnc2cc(-c3ccccc3C(F)(F)F)[nH]c2c1 [Product 44, 1-methyl-N-(2-(2-(trifluoromethyl)phenyl)-1H-pyrrolo[3,2-b]pyridin-6-yl)-1H-pyrazole-5-carboxamide]"
3,< 100,Cn1ncnc1C(=O)Nc1cnc2cc(-c3ccccc3C(F)(F)F)[nH]c2c1 [Product 45]
4,100 to 500,Cc1ccccc1-c1cc2ncc(NC(=O)c3ncnn3C)cc2[nH]1 [Product 46]

# Tested on: not listed separately
# Experiment: Solubility Determination Assay (PBS pH 1.6 and pH 7.4)
# Type: physicochemical
# Settings: PBS buffer, aqueous buffer, kinetic from dmso stock; PBS pH 1.6, 25° C., 2 hours shaking; read-out: Aq. Solubility at pH = 1.6
# Description: Example 31: Solubility Determination Assay
# The stock solutions of test compounds and control compound progesterone were prepared in DMSO at the concentrations of 10 mM. 15 μL of stock solution (10 mM) of each sample was placed in order into their proper 96-well rack. 485 μL of PBS pH 1.6 and pH 7.4 were added into each vial of the cap-less Solubility Sample plate. The assay was performed in singlet. One stir stick was added to each vial and then the vial was sealed using a molded PTFE/Silicone plug. The solubility sample plates were then transferred to the Eppendorf Thermomixer Comfort plate shaker and shaken at 25° C. at 1100 rpm for 2 hours. After completion of the 2 hours, plugs were removed and the stir sticks were removed using a big magnet. The samples from the Solubility Sample plate were transferred into the filter plate. Using the Vacuum Manifold, all the samples were filtered. An aliquot of 5 μL was taken from the filtrate followed by addition of 495 μL of a mixture of H2O and acetonitrile containing internal standard (1:1). A certain proportion of ultrapure water was used to dilute the diluent according to the peak shape. The dilution factor was changed according to the solubility values and the LC-MS signal response.
# From the 10 mM DMSO STD plate, 6 μL was transferred into the remaining empty plate, and then 194 μL of DMSO were added to that plate to have a STD concentration of 300 μM. From the 300 μM DMSO STD plate, 5 μL were transferred into the remaining empty plate, and then 495 μL of a mixture of H2O and acetonitrile containing internal standard (1:1) were added to that plate to have a final STD concentration of 3 μM. A certain proportion of ultrapure water was used to dilute the diluent according to the peak shape. The concentrations of the standard samples were changed according to the LC-MS signal response.
# The plate was placed into the well plate autosampler. The samples were evaluated by LC-MS/MS analysis.
# All calculations were carried out using Microsoft Excel.
# The filtrate was analyzed and quantified against a standard of known concentration using LC coupled with mass spectral peak identification and quantitation. Solubility values of the test compound and control compound were calculated as follows: […]
# Any value of the compounds that was not within the specified limits was rejected and the experiment was repeated.
# “+++” indicates a solubility value equal to or greater than […] “++” indicates a solubility value between 0.1 and 1 μM and “+” indicates a solubility value less than 0.1 μM.
row,solubility at 2 h [µM],SMILES
1,≥ 1,"Cc1ccccc1-c1cc2ncc(NC(=O)c3ccnn3C)cc2[nH]1 [Product 49, 1-methyl-N-(2-(o-tolyl)-1H-pyrrolo[3,2-b]pyridin-6-yl)-1H-pyrazole-5-carboxamide]"

# Same assay, conditions: PBS buffer, aqueous buffer, kinetic from dmso stock; PBS pH 7.4, 25° C., 2 hours shaking; read-out: Aq. Solubility at pH = 7.4
row,solubility at 2 h [µM],SMILES
1,≥ 1,"Cc1ccccc1-c1cc2ncc(NC(=O)c3ccnn3C)cc2[nH]1 [Product 49, 1-methyl-N-(2-(o-tolyl)-1H-pyrrolo[3,2-b]pyridin-6-yl)-1H-pyrazole-5-carboxamide]"
